Reference: patent EP0614662A1, “Use of (2E,4E,6E,10E)-3,7,11,15-tetramethyl-2,4,6,10,14-hexadecapentaenoic acid for the treatment of leukaemia” (Eisai Co., Ltd., priority 1993, dated 1994)

Columns and labels:
mice = settings: cited from earlier work
mouse papilloma = settings: cited from earlier work
[1] = Acute toxicity test, single dose, ICR mice; settings: in vivo, Mouse (ICR)
Procedure: (§1) By using 5 female and 5 male SD rats and ICR mice aged 7 to 8 weeks, the toxicities of the compound of the present invention were tested through oral, intramuscular, subcutaneous and intraperitoneal administrations each in a single dose (medium: 5% gum arabic).

[2] = Acute toxicity test, single dose, SD rats; settings: in vivo, Rat (SD)
Procedure: as §1

HL-60 = experiment: Cytotoxicity on HL-60 (viable cell count, Trypan Blue); assay type: cell-based; settings: human, 5 days
Procedure: After the completion of the incubation, the total cell count was calculated with a Burker-Turk calculation board and the viable cell count was calculated by regarding the cells stained with Trypan Blue as the dead ones. Thus ID₅₀ and LD₅₀ were determined. Further, a cytospin slide was prepared and the morphology of the cells was observed by the May-Giemsa staining method.

cells of APL patients = experiment: Ability to induce differentiation of cells of APL patients; assay type: cell-based, human
Procedure: To illustrate the usefulness of the compound of the present invention as a differentiation inducer, a test example on the effects of the compound of the present invention on leukemic cells of APL patients and various cultured human leukemic cell lites will be given. The backgrounds of the patients providing the bloods employed in the test are as follows.
The cells samples from APL patients were adjusted to an initial cell count of 1 × 10⁶ cells/ml and incubated in the above-mentioned IMDM medium containing 10% of fetal calf serum for 5 days under the addition of the compound (I) or ATRA (10⁻⁶ to 10⁻⁸ mol/1), followed by the same evaluation as the one effected in the case of HL-60. Further, the ratio of mature cells to all the cells was determined in accordance with the following formula and taken as an indication for the comparison of the ability to induce differentiation: [formula]

APL = settings: clinical data, Blood, 72, 567 - 572 (1988); cited from earlier work
[3] = female, ♀, oral, medium 5% gum arabic, read-out: LD₅₀ Oral
[4] = female, ip, ♀, intraperitoneal, read-out: LD₅₀ Intraperitoneal
[5] = female, sc, ♀, subcutaneous, read-out: LD₅₀ Subcutaneous
[6] = male, ♂, oral, medium 5% gum arabic, read-out: LD₅₀ Oral
[7] = male, im, ♂, intramuscular, read-out: LD₅₀ Intramuscular
[8] = male, ip, ♂, intraperitoneal, read-out: LD₅₀ Intraperitoneal
[9] = male, sc, ♂, subcutaneous, read-out: LD₅₀ Subcutaneous

Compound: CC(C)=CCC/C(C)=C/CC/C(C)=C/C=C/C(C)=C/C(=O)O [compound (I), (2E,4E,6E,10E)-3,7,11,15-tetramethyl-2,4,6,10,14-hexadecapentaenoic acid]
- hypervitaminosis A (depilation, reduction in body weight) (mice): did not suffer from such a symptom
- antitumor effect (mouse papilloma): exerts an antitumor effect
- LD50 [1, 3]: > 6250 mg/kg
- LD50 ([1]; female, im, ♀, intramuscular, read-out: LD₅₀ Intramuscular): > 2000 mg/kg
- LD50 [1, 4]: 1.1 mg/kg
- LD50 [1, 5]: > 4 mg/kg
- LD50 [1, 6]: > 6250 mg/kg
- LD50 [1, 7]: 2 mg/kg
- LD50 [1, 8]: 970 mg/kg
- LD50 [1, 9]: > 4000 mg/kg
- LD50 [2, 3]: 2850 mg/kg
- LD50 [2, 4]: 680 mg/kg
- LD50 [2, 5]: 2800 mg/kg
- LD50 [2, 6]: 2400 mg/kg
- LD50 [2, 7]: 830 mg/kg
- LD50 [2, 8]: 731 mg/kg
- LD50 [2, 9]: 2500 mg/kg
- ratio of the dead cells stained with Trypan Blue (HL-60): ≤ 10%
- effect of inducing differentiation (cells of APL patients; 5 days incubation, 10⁻⁶ to 10⁻⁸ mol/l): exhibited an effect of inducing differentiation similar to ATRA
- efficacy on cells having a fused gene PML-RAR-α (cells of APL patients; PML/RAR-α (+)): effective in all of the cases

Compound: CC1=C(/C=C/C(C)=C/C=C/C(C)=C/C(=O)O)C(C)(C)CCC1 [ATRA, all-trans-retinoic acid, reference compound]
- hypervitaminosis A (depilation, reduction in body weight) (mice): suffered from hypervitaminosis A including depilation and reduction in body weight
- healing of APL patients (APL): about 100%
- ratio of the dead cells stained with Trypan Blue (HL-60): ≤ 10%
